One test concerns the target human Cathepsin S (Homo sapiens (Human), UniProt P25774). In words: Cathepsin enzyme inhibition assay (fluorogenic peptide substrate), human Cat S. The conditions noted are these: human Cat S 1 nM, substrate Z-Val-Val-Arg-AMC 20 μM, pH 6.5. Format: biochemical. Here is the method: (§1) Cathepsin Enzyme Inhibition Assay
(§2) Enzyme activity is measured by observing the increase in fluorescence intensity caused by cleavage of a peptide substrate containing a fluorophore whose emission is quenched in the intact peptide.
(§3) Assay buffer: 100 mM potassium phosphate pH 6.5, EDTA-Na 5 mM, Triton X-100 0.001%, DTT 5 mM.
(§4) Enzymes (all at 1 nM): human and mouse Cathepsin S, Cat K, Cat B, Cat L.
(§5) Substrate (20 μM): Z-Val-Val-Arg-AMC, except for Cat K which uses Z-Leu-Arg-AMC (both from Bachem).
(§6) AMC=7-Amino-4-Methyl-Coumarin.
(§7) Excitation 360 nm, Emission 465 nm.
(§8) Enzyme is added to the substance dilutions in 96-well microtitre plates and the reaction is started with substrate. […] IC50 are calculated by standard methods.
(§9) Inhibition of human Cat S, mouse Cat S, human Cat K, human Cat B, human Cat L and mouse Cat L have been measured separately.

For another test, the target named is human Cat L (Homo sapiens (Human), UniProt P07711). The experiment in a line: Cathepsin enzyme inhibition assay (fluorogenic peptide substrate), human Cat L. Format: biochemical. The conditions noted are these: human Cat L 1 nM, substrate Z-Val-Val-Arg-AMC 20 μM, pH 6.5. Here is the method:
as §1, §2, §3, §4, §5, §6, §7, §8, §9

Sequence of human Cat L (P07711 114-333): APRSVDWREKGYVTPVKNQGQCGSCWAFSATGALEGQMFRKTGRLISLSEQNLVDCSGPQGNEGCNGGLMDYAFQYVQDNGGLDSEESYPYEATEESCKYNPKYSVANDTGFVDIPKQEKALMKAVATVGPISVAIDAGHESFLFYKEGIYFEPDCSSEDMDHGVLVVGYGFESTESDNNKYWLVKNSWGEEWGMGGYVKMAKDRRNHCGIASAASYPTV
Sequence of human Cathepsin S (P25774 115-331): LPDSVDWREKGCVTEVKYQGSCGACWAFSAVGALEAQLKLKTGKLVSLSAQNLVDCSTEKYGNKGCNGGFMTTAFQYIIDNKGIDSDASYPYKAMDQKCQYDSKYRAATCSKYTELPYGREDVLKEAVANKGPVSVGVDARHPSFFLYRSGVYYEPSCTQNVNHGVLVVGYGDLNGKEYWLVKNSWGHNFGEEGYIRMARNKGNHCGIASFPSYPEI

As for `Cc1cc(-c2ccc(S(=O)(=O)[C@@H]3C[C@@H](C(=O)NC4(C#N)CC4)N(C(=O)C4(c5ncc(Cl)cc5F)CC4)C3)c(Cl)c2)ccn1` [Example 31, (2S,4R)-1-(1-(5-chloro-3-fluoropyridin-2-yl)cyclopropanecarbonyl)-4-(2-chloro-4-(2-methylpyridin-4-yl)phenylsulfonyl)-N-(1-cyanocyclopropyl)pyrrolidine-2-carboxamide], the IC50 at human Cathepsin S turned out to be 0.505 nM; against human Cat L, 61.6 nM.

`N#CC1(NC(=O)[C@@H]2C[C@@H](S(=O)(=O)c3ccc(-c4ccnc(Cl)c4)cc3Cl)CN2C(=O)C2(c3ncc(Cl)cc3F)CC2)CC1` [Example 32, (2S,4R)-4-[2-Chloro-4-(2-chloro-pyridin-4-yl)-benzenesulfonyl]-1-[1-(5-chloro-3-fluoro-pyridin-2-yl)-cyclopropanecarbonyl]-pyrrolidine-2-carboxylic acid (1-cyano-cyclopropyl)-amide]: the half-maximal inhibitory concentration (IC50) on human Cathepsin S was 0.686 nM; at human Cat L, 112 nM.

With `Cn1cc(-c2ccc(S(=O)(=O)[C@@H]3C[C@@H](C(=O)NC4(C#N)CC4)N(C(=O)C4(c5ncc(Cl)cc5F)CC4)C3)c(Cl)c2)cn1` [Example 33, (2S,4R)-1-[1-(5-Chloro-3-fluoro-pyridin-2-yl)-cyclopropanecarbonyl]-4-[2-chloro-4-(1-methyl-1H-pyrazol-4-yl)-benzenesulfonyl]-pyrrolidine-2-carboxylic acid (1-cyano-cyclopropyl)-amide], the IC50 is 0.375 nM at human Cathepsin S and 28.7 nM against human Cat L.

With `Cc1ncccc1-c1ccc(S(=O)(=O)[C@@H]2C[C@@H](C(=O)NC3(C#N)CC3)N(C(=O)C3(c4ncc(Cl)cc4F)CC3)C2)c(Cl)c1` [Example 34, (2S,4R)-1-[1-(5-Chloro-3-fluoro-pyridin-2-yl)-cyclopropanecarbonyl]-4-[2-chloro-4-(2-methyl-pyridin-3-yl)-benzenesulfonyl]-pyrrolidine-2-carboxylic acid (1-cyano-cyclopropyl)-amide], the IC50 at human Cathepsin S is 0.322 nM; on human Cat L it was 64.2 nM.

On to `Cc1ncccc1-c1ccc(S(=O)(=O)[C@@H]2C[C@@H](C(=O)NC3(C#N)CC3)N(C(=O)C3(c4ncc(C(F)(F)F)cc4F)CC3)C2)c(Cl)c1` [Example 35, (2S,4R)-4-[2-Chloro-4-(2-methyl-pyridin-3-yl)-benzenesulfonyl]-1-[1-(3-fluoro-5-trifluoromethyl-pyridin-2-yl)-cyclopropanecarbonyl]-pyrrolidine-2-carboxylic acid (1-cyano-cyclopropyl)-amide], for which the results for the IC50 against human Cathepsin S and on human Cat L were 0.768 nM and 58.9 nM, respectively.

For `Cc1ncccc1-c1ccc(S(=O)(=O)[C@@H]2C[C@@H](C(=O)NC3(C#N)CC3)N(C(=O)C3(c4ncc(I)cc4F)CC3)C2)c(Cl)c1` [Example 36, (2S,4R)-4-[2-Chloro-4-(2-methyl-pyridin-3-yl)-benzenesulfonyl]-1-[1-(3-fluoro-5-iodo-pyridin-2-yl)-cyclopropanecarbonyl]-pyrrolidine-2-carboxylic acid (1-cyano-cyclopropyl)-amide], the half-inhibitory concentration (IC50) at human Cathepsin S amounted to 0.382 nM; at human Cat L it was 9.8 nM.

With `Cc1ncccc1-c1ccc(S(=O)(=O)[C@@H]2C[C@@H](C(=O)NC3(C#N)CC3)N(C(=O)C3(c4ncc(Cl)cc4Cl)CC3)C2)c(Cl)c1` [Example 37, (2S,4R)-4-[2-Chloro-4-(2-methyl-pyridin-3-yl)-benzenesulfonyl]-1-[1-(3,5-dichloro-pyridin-2-yl)-cyclopropanecarbonyl]-pyrrolidine-2-carboxylic acid (1-cyano-cyclopropyl)-amide], the half-inhibitory concentration (IC50) against human Cathepsin S is 0.779 nM; against human Cat L, 72.2 nM.

On to `Cn1cc(-c2ccc(S(=O)(=O)[C@@H]3C[C@@H](C(=O)NC4(C#N)CC4)N(C(=O)C4(c5ncc(I)cc5F)CC4)C3)c(Cl)c2)cn1` [Example 38, (2S,4R)-4-[2-Chloro-4-(1-methyl-1H-pyrazol-4-yl)-benzenesulfonyl]-1-[1-(3-fluoro-5-iodo-pyridin-2-yl)-cyclopropanecarbonyl]-pyrrolidine-2-carboxylic acid (1-cyano-cyclopropyl)-amide], for which the results for the IC50 at human Cathepsin S and against human Cat L were 0.678 nM and 3.2 nM, respectively.

As to `Cn1cc(-c2ccc(S(=O)(=O)[C@@H]3C[C@@H](C(=O)NC4(C#N)CC4)N(C(=O)C4(c5ncc(C(F)(F)F)cc5F)CC4)C3)c(Cl)c2)cn1` [Example 39, (2S,4R)-4-[2-Chloro-4-(1-methyl-1H-pyrazol-4-yl)-benzenesulfonyl]-1-[1-(3-fluoro-5-trifluoromethyl-pyridin-2-yl)-cyclopropanecarbonyl]-pyrrolidine-2-carboxylic acid (1-cyano-cyclopropyl)-amide], the IC50 was 0.696 nM on human Cathepsin S and 43.6 nM against human Cat L.

`N#CC1(NC(=O)[C@@H]2C[C@@H](S(=O)(=O)c3ccccc3F)CN2C(=O)C2(c3ncc(I)cc3F)CC2)CC1` [Example 41, (2S,4R)-4-(2-Fluoro-benzenesulfonyl)-1-[1-(3-fluoro-5-iodo-pyridin-2-yl)-cyclopropanecarbonyl]-pyrrolidine-2-carboxylic acid (1-cyano-cyclopropyl)-amide]: the 50% inhibitory concentration (IC50) against human Cathepsin S worked out at 0.6 nM; against human Cat L, 3 nM.

`N#CC1(NC(=O)[C@@H]2C[C@@H](S(=O)(=O)c3ccccc3F)CN2C(=O)C2(c3ncc(Cl)cc3F)CC2)CC1` [Example 42, (2S,4R)-1-[1-(5-Chloro-3-fluoro-pyridin-2-yl)-cyclopropanecarbonyl]-4-(2-fluoro-benzenesulfonyl)-pyrrolidine-2-carboxylic acid (1-cyano-cyclopropyl)-amide]: the figures for the IC50 on human Cathepsin S and against human Cat L were 0.7 nM and 31 nM, respectively.

For `N#CC1(NC(=O)[C@@H]2C[C@@H](S(=O)(=O)c3ccccc3-n3cccn3)CN2C(=O)C2(c3ncc(I)cc3F)CC2)CC1` [Example 43, (2S,4R)-1-[1-(3-Fluoro-5-iodo-pyridin-2-yl)-cyclopropanecarbonyl]-4-(2-pyrazol-1-yl-benzenesulfonyl)-pyrrolidine-2-carboxylic acid (1-cyano-cyclopropyl)-amide], the IC50 at human Cathepsin S turned out to be 17 nM; against human Cat L it was 90.6 nM.

`N#CC1(NC(=O)[C@@H]2C[C@@H](S(=O)(=O)c3ccccc3-n3ccnn3)CN2C(=O)C2(c3ncc(I)cc3F)CC2)CC1` [Example 44, (2S,4R)-1-[1-(3-Fluoro-5-iodo-pyridin-2-yl)-cyclopropanecarbonyl]-4-(2-[1,2,3]triazol-1-yl-benzenesulfonyl)-pyrrolidine-2-carboxylic acid (1-cyano-cyclopropyl)-amide]: the IC50 against human Cathepsin S was 2.37 nM; at human Cat L it was 1560 nM.

With `N#CC1(NC(=O)[C@@H]2C[C@@H](S(=O)(=O)c3ccccc3-n3cncn3)CN2C(=O)C2(c3ncc(I)cc3F)CC2)CC1` [Example 45, (2S,4R)-1-[1-(3-Fluoro-5-iodo-pyridin-2-yl)-cyclopropanecarbonyl]-4-(2-[1,2,4]triazol-1-yl-benzenesulfonyl)-pyrrolidine-2-carboxylic acid (1-cyano-cyclopropyl)-amide], the concentration for half-maximal inhibition (IC50) against human Cathepsin S turned out to be 327 nM; on human Cat L, 28400 nM.

In the case of `N#CC1(NC(=O)[C@@H]2C[C@@H](S(=O)(=O)c3ccccc3-n3cccn3)CN2C(=O)C2(c3ncc(Cl)cc3F)CC2)CC1` [Example 46], the figures for the concentration for half-maximal inhibition (IC50) against human Cathepsin S and against human Cat L were 159 nM and 17400 nM, respectively.

Take `N#CC1(NC(=O)[C@@H]2C[C@@H](S(=O)(=O)c3ccccc3-n3ccnn3)CN2C(=O)C2(c3ncc(Cl)cc3F)CC2)CC1` [Example 47, (2S,4R)-1-[1-(5-Chloro-3-fluoro-pyridin-2-yl)-cyclopropanecarbonyl]-4-(2-[1,2,3]triazol-1-yl-benzenesulfonyl)-pyrrolidine-2-carboxylic acid (1-cyano-cyclopropyl)-amide]: the IC50 against human Cathepsin S was 4.27 nM; against human Cat L, 35200 nM.

As for `N#CC1(NC(=O)[C@@H]2C[C@@H](S(=O)(=O)c3ccccc3-n3cncn3)CN2C(=O)C2(c3ncc(Cl)cc3F)CC2)CC1` [Example 48, (2S,4R)-1-[1-(5-Chloro-3-fluoro-pyridin-2-yl)-cyclopropanecarbonyl]-4-(2-[1,2,4]triazol-1-yl-benzenesulfonyl)-pyrrolidine-2-carboxylic acid (1-cyano-cyclopropyl)-amide], the concentration for half-maximal inhibition (IC50) against human Cathepsin S stood at 58.5 nM; at human Cat L it was 21100 nM.
